Reference: patent publication US11807693B2 (priority 2014, dated 2023)
Read-outs that look alike come from different tables or passages of the source. Starred links: 1 amine or outer side, 2 acyl side, 3 side chain; linkers in the order of their positions; H or OH if unused. Positions of bridges follow the written chain, without caps; N, C: chain ends. Non-standard residues stand in square brackets, D forms with d. Residues, ends and D or L forms follow the SMILES beside them. *: point of attachment. dBip = N[C@H](Cc1ccc(-c2ccccc2)cc1)C(=O)O; Oic = O=C(O)[C@@H]1C[C@@H]2CCCC[C@@H]2N1; Phe(4-Cl) = N[C@@H](Cc1ccc(Cl)cc1)C(=O)O; dPhe(4-Cl) = N[C@H](Cc1ccc(Cl)cc1)C(=O)O; Phe(4-I) = N[C@@H](Cc1ccc(I)cc1)C(=O)O; γGlu = O=C(O)[C@H](CCC(=O)[*:2])N[*:1]; NMeR = CN[C@@H](CCCNC(=N)N)C(=O)O; Tridecanoyl = CCCCCCCCCCCCC(=O)*; hArg = N=C(N)NCCCC[C@H](N)C(=O)O; β3hF = N[C@H](CC(=O)O)Cc1ccccc1; Cha = N[C@@H](CC1CCCCC1)C(=O)O; NMeL = CN[C@@H](CC(C)C)C(=O)O; Nle = CCCC[C@H](N)C(=O)O; AEEA = NCCOCCOCC(=O)O; Aib = CC(C)(N)C(=O)O; Mpa = O=C(O)CCS

How the values were obtained:
Human Mast Cells = experiment: Mast cell degranulation (histamine release), human mast cells; assay type: cell-based; conditions: human mast cells derived from CD34+ peripheral blood cells; 0.005 to 30 μM, 37° C., 30 min; less than 30% of total histamine content = negative
Description: Mast cell degranulation was measured for a number of the modified apelin polypeptides as follows in order to determine the potential immunogenic effect of the peptides. Mast cell degranulating peptide (MCDP) and compound 48/80 were used as positive controls. MCDP was obtained from Alomone Labs (Israel). Compound 48/80 was obtained from Sigma (Saint Louis, […].). Histamine Elisa kit was obtained from NEOGEN (Lexington, Ky.). Tyrode's buffer was obtained from Sigma (#T2397).
Mature human mast cells were derived from CD34+peripheral blood precursor cells after an 8-12 week differentiation/maturation process in vitro. […] Mast cell maturation was confirmed via expression of the mast cell markers c-kit and FcεRI via flow cytometry (>75% positive) and histamine release.
Mast cells (human or rat) were washed in Tyrode's buffer and seeded on 96-well plates (approx. 2000 mast cells/well). A 10 point dilution of test compounds were prepared in Tyrode's buffer and were incubated (0.005 to 30 μM) with mast cells at 37° C. for 30 min. […] A mast cell surfactant control is compared to a mast cell Tyrode's buffer control to ensure surfactants are not inducing histamine release in the absence of the lipidated molecule. Histamine release was quenched by placing the plates on ice for 5 min. Cells were centrifuged at 350×g at 4° C. for 5 min and the supernatant was collected. Released histamine was quantified by ELISA (Neogen Corporation) as per the kits' instruction. Briefly, the absorbance was measured at 650 nm in a microplate reader, following a direct competitive ELISA reaction with test samples compared against a standard curve. Total histamine content of the cells (0.1% Triton X-100) and spontaneous release were also measured to determine the percent of histamine release. Percent histamine release was calculated by the following formula: % histamine release=(ng/ml histamine release by test article−ng/ml spontaneous histamine release in Tyrode's buffer)/(ng/ml total histamine content of cells lysed in 0.1% Triton X-100−ng/ml spontaneous histamine release in Tyrode's buffer)×100.

[1] = In vitro stability in rat liver homogenate; assay type: in vitro ADME; conditions: tissue homogenate
How it was run: (§1)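 Apelin peptides were spiked at 5 μM final into rat plasma, liver homogenate or kidney homogenate and incubated at 37° C. for up to 4 hr. Aliquots were quenched with MeOH containing internal standard, centrifuged, and supernatants analyzed by high resolution LC-MS.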

[2] = In vitro stability in rat plasma; assay type: in vitro ADME
How it was run: as §1

[3] = system: Rat Peritoneal Mast Cells
liver homogenate = conditions: rat, 37° C., up to 4 hr
[4] = In vitro stability in rat kidney homogenate; assay type: in vitro ADME; conditions: for remaining at 4 h, 5 μM: rat, tissue homogenate
How it was run: as §1

[5] = In vivo pharmacokinetics in rat; parameters: species or system Sprague-Dawley rats; conditions: rat, in vivo, sc, 0.5 mg/kg
Description: Evaluation of the in vivo pharmacokinetic profile of several pegylated and lipidated apelin polypeptides in rat was undertaken (FIGS. 9 and 10A-B). The apelin polypeptides were administered to Sprague-Dawley rats through subcutaneous (SC) administration and the pharmacokinetic profile for each polypeptide was subsequently evaluated. […] Blood samples collected over a 24 hr period were transferred into collection tubes containing potassium EDTA and stored on ice until processed. Plasma was obtained from blood by centrifugation. After transfer into a 96-well container, plasma samples were stored in a freezer maintained at approximately −80° C. Quantitative analysis of the apelin polypeptide in rat plasma samples was achieved using multiple reaction monitor (MRM) mode on a LC-MS/MS system.

rat APJ receptor = biological target: T1, rat APJ receptor (Rattus norvegicus, UniProt Q9JHG3); experiment: [35S] GTPγS assay, rat APJ receptor; assay type: biochemical
T1 construct: expressed in transfected cells
T1 sequence (Q9JHG3 1-377): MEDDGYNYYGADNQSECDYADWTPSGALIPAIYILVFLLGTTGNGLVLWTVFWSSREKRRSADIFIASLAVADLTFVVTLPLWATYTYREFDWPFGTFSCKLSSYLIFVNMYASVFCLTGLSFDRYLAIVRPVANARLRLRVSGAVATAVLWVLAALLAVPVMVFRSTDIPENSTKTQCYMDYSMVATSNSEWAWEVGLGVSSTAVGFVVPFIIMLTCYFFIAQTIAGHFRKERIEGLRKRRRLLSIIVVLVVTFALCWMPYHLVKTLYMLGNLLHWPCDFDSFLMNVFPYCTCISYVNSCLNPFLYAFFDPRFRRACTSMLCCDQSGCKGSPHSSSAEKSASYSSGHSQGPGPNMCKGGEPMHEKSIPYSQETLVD
Description: The membranes were incubated with modified peptides in the assay buffer. […] Bound [^35S] GTPγS was separated from free radiolabel by filtration. The filter bound radioactivity was determined by liquid scintillation counting.

Compound: CCCC[C@H](NC(=O)[C@@H]1CCCN1C(=O)CNC(=O)[C@H](CCCCN)NC(=O)[C@H](Cc1c[nH]cn1)NC(=O)[C@H](CO)NC(=O)[C@H](CC(C)C)NC(=O)[C@H](CCCNC(=N)N)N(C)C(=O)[C@@H]1CCCN1C(=O)[C@H](CCCNC(=N)N)NC(=O)[C@H](CCC(N)=O)NC(=O)COCCOCCNC(=O)COCCOCCNC(=O)CC[C@H](NC(=O)CCC)C(=O)O)C(=O)N1CCC[C@H]1C(=O)N[C@@H](Cc1ccc(Cl)cc1)C(=O)O [compound 491]
- Induce Histamine Release? Human Mast Cells (Human Mast Cells): No
- remaining at 4 h, 5 μM [1]: < 1%
- remaining at 4 h, 5 μM [2]: < 1%

Compound: {Acetyl-NH} Q R P [NMeArg] [Cha] S H K G [Oic] [Nle] [Aib] [4-Cl—F] {COOH} (Ac-QRP[NMeR][Cha]SHKG[Oic][Nle][Aib][Phe(4-Cl)]-OH) [SEQ ID NO: 92]
- induction of histamine release from rat mast cells [3]: positive

Compound: {H2} [MerPr] (10K mPEG acetamide) Q [NMehArg] P [NMeArg] [aMeLeu] S H K G P [Nle] P [4-Cl-F] {COOH}
- not cleaved (liver homogenate): >90.0 % remaining at 4 hours

Compound: CCCC[C@H](NC(=O)[C@@H]1C[C@@H]2CCCC[C@@H]2N1C(=O)CNC(=O)[C@H](CCCCN)NC(=O)[C@H](Cc1c[nH]cn1)NC(=O)[C@H](CO)NC(=O)[C@H](CC1CCCCC1)NC(=O)[C@H](CCCNC(=N)N)N(C)C(=O)[C@@H]1CCCN1C(=O)[C@H](CCCCNC(=N)N)NC(=O)[C@@H](CCC(N)=O)NC(C)=O)C(=O)N1CCC[C@H]1C(=O)N[C@H](Cc1ccc(Cl)cc1)C(=O)O [compound 55] (Ac-[dQ][hArg]P[NMeR][Cha]SHKG[Oic][Nle]P[dPhe(4-Cl)]-OH)
- EC50 [3]: 8170 nM

Compound: {H2} [MerPr] (10K mPEG acetamide) Q r P [hArg] [aMeLeu] S H K G P [Nle] P [4-Cl-F] {COOH}
- not cleaved (liver homogenate): >90.0 % remaining at 4 hours

Compound: CCCCCCCCCCCCC(=O)N[C@@H](CCC(=O)NCCOCCOCC(=O)NCCOCCOCC(=O)N[C@@H](CCC(N)=O)C(=O)N[C@@H](CCCNC(=N)N)C(=O)N1CCC[C@H]1C(=O)N(C)[C@@H](CCCNC(=N)N)C(=O)N[C@@H](CC1CCCCC1)C(=O)N[C@@H](CO)C(=O)N[C@@H](Cc1c[nH]cn1)C(=O)N[C@@H](CCCCN)C(=O)NCC(=O)N1[C@H](C(=O)N[C@@H](CCCC)C(=O)NC(C)(C)C(=O)N[C@@H](Cc2ccc(Cl)cc2)C(=O)O)C[C@@H]2CCCC[C@@H]21)C(=O)O [compound 382] ({Tridecanoyl-γGlu-AEEA-AEEA}-QRP[NMeR][Cha]SHKG[Oic][Nle][Aib][Phe(4-Cl)]-OH)
- remaining at 4 h, 5 μM [4]: 2%
- remaining at 4 h, 5 μM [1]: 6%
- remaining at 4 h, 5 μM [2]: 91%
- AUC(0-inf) [5]: 0.0961 µM·h
- half-life [5]: 4.1 h

Compound: CC[C@H](C)[C@H](N)C(=O)N[C@@H](CCCCN)C(=O)N[C@H]1CSSC[C@@H]2NC(=O)[C@H]([C@@H](C)CC)NC(=O)[C@H](Cc3c[nH]cn3)NC(=O)[C@@H]3CCCN3C(=O)[C@H](CCCCN)NC(=O)[C@H]([C@@H](C)CC)NC(=O)[C@H](C(C)C)NC(=O)[C@H](Cc3c[nH]cn3)NC(=O)[C@H](CCCNC(=N)N)NC(=O)[C@H](CCCCN)NC(=O)[C@H](CSSC[C@@H](C(=O)NCC(=O)N[C@@H](CCCCN)C(=O)N[C@@H](CC(N)=O)C(N)=O)NC(=O)[C@H]([C@@H](C)CC)NC(=O)[C@H](CCCCN)NC(=O)[C@H](CCCNC(=N)N)NC2=O)NC(=O)[C@H](CC(N)=O)NC1=O [MCDP, reference compound] (H-IKCNCKRHVIKPHICRKICGKN-NH2; disulfide 3-15, 5-19 (inferred); N-terminus and C-terminus assumed)
- Cause Histamine Release? [3]: Yes
- EC50 [3]: 520 nM

Compound: CC(=O)N[C@H](CCCNC(=N)N)C(=O)N[C@@H](CCC(N)=O)C(=O)N[C@@H](CCCNC(=N)N)C(=O)N1CCC[C@H]1C(=O)N[C@@H](CCCCNC(=N)N)C(=O)N(C)[C@@H](CC(C)C)C(=O)N[C@@H](CO)C(=O)N[C@@H](Cc1c[nH]cn1)C(=O)N[C@@H](CCCCN)C(=O)NCC(=O)N1[C@H](C(=O)N[C@@H](Cc2ccc(I)cc2)C(=O)N2CCC[C@H]2C(=O)N[C@H](Cc2ccc(-c3ccccc3)cc2)C(=O)O)C[C@@H]2CCCC[C@@H]21 [compound 52] (Ac-[dR]QRP[hArg][NMeL]SHKG[Oic][Phe(4-I)]P[dBip]-OH)
- EC50 (rat APJ receptor; read-out: EC50 Rat APJ Receptor): 1.14 nM
- EC50 [3]: 550 nM

Compound: CCCC[C@H](NC(=O)[C@@H]1CCCN1C(=O)CNC(=O)[C@H](CCCCN)NC(=O)[C@H](Cc1c[nH]cn1)NC(=O)[C@H](CO)NC(=O)C(C)(CC(C)C)NC(=O)[C@H](CCCCNC(=N)N)NC(=O)C1(C)CCCN1C(=O)[C@H](CCCNC(=N)N)NC(=O)[C@H](CCC(N)=O)NC(C)=O)C(=O)N1CCC[C@H]1C(=O)N[C@@H](Cc1ccc(Cl)cc1)C(=O)O (stereo partly drawn) [compound 69]
- Induce Histamine Release? Human Mast Cells (Human Mast Cells): No

Compound: CCCC[C@H](NC(=O)[C@@H]1CCCN1C(=O)CNC(=O)[C@H](CCCCN)NC(=O)[C@H](Cc1c[nH]cn1)NC(=O)[C@H](CO)NC(=O)[C@H](CC(C)C)NC(=O)[C@H](CCCNC(=N)N)N(C)C(=O)[C@@H]1CCCN1C(=O)[C@H](CCCNC(=N)N)NC(=O)[C@H](CCC(N)=O)NC(=O)COCCOCCNC(=O)COCCOCCNC(=O)CC[C@H](NC(=O)CCC)C(=O)O)C(=O)N1CCC[C@H]1C(=O)N[C@@H](Cc1ccc(Cl)cc1)C(=O)O [SEQ ID NO: 491]
- induction of histamine release from rat mast cells [3]: less mast cell degranulation activity

Compound: CCCCCCCCCCCCC(=O)N[C@@H](CCC(=O)NCCOCCOCC(=O)NCCOCCOCC(=O)N[C@@H](CCC(N)=O)C(=O)N[C@@H](CCCNC(=N)N)C(=O)N1CCC[C@H]1C(=O)N(C)[C@@H](CCCNC(=N)N)C(=O)N[C@@H](CC1CCCCC1)C(=O)N[C@@H](CO)C(=O)N[C@@H](Cc1c[nH]cn1)C(=O)N[C@@H](CCCCN)C(=O)NCC(=O)N1[C@H](C(=O)N[C@@H](CCCC)C(=O)N2CCC[C@H]2C(=O)N[C@H](CC(=O)O)Cc2ccccc2)C[C@@H]2CCCC[C@@H]21)C(=O)O [compound 379] ({Tridecanoyl-γGlu-AEEA-AEEA}-QRP[NMeR][Cha]SHKG[Oic][Nle]P[β3hF]-OH)
- remaining at 4 h, 5 μM [4]: 1%
- remaining at 4 h, 5 μM [1]: 2%
- remaining at 4 h, 5 μM [2]: 92%
- EC50 (rat APJ receptor; Table 16, read-out: EC50 Rat APJ Receptor): 8.37 nM
- AUC(0-inf) [5]: 0.052 µM·h
- half-life [5]: 2.27 h

Compound: CSCC[C@H](NC(=O)[C@@H]1CCCN1C(=O)CNC(=O)[C@H](CCCCN)NC(=O)[C@H](Cc1cnc[nH]1)NC(=O)[C@H](CO)NC(=O)[C@H](CC(C)C)NC(=O)[C@H](CCCNC(=N)N)NC(=O)[C@@H]1CCCN1C(=O)[C@H](CCCNC(=N)N)NC(=O)[C@@H]1CCC(=O)N1)C(=O)N1CCC[C@H]1C(=O)N[C@@H](Cc1ccccc1)C(=O)O [compound 6]
- Stability at 4 hours (% Remaining) Kidney ([4]; rat kidney homogenate, 5 μM peptide, 37° C., 4 hr): <1.0 % Remaining
- induction of histamine release from rat mast cells [3]: inactive at the highest concentrations tested

Compound: {H2}[MerPr](10KmPEGacetamide)QRP[NMeArg][Cha]SHKG[Oic][Nle][Aib][4-Cl-F]{COOH} (10KmPEGacetamide-[Mpa]QRP[NMeR][Cha]SHKG[Oic][Nle][Aib][Phe(4-Cl)]-OH) [SEQ ID NO: 120]
- induction of histamine release from rat mast cells ([3]; rat mast cells): no longer induced histamine release
